Reference: patent publication EP0312076A1, “Use of oxoquinazoline derivatives in the treatment of hyperlipidemia” (BOEHRINGER INGELHEIM KG, priority 1987, dated 1989)

Legend:
[1] = tested on: Gesamtcholesterinspiegel; experiment: Lowering of total cholesterol level in humans; format: in vivo; details: 600 mg pro Tag, beim Menschen
Description: Mit 600 mg pro Tag ließ sich z.B. bei Verwendung der 11-Oxo-11-H-pyrido[2,1-b]chinazolin-2-carbonsäure beim Menschen der Gesamtcholesterinspiegel um etwa 25 % senken.

[2] = set-up: species or system Patienten; details: in vivo
From the text: Gegenüber den bekannten Mitteln zur Behandlung der Hyperlipidämie haben die erfindungsgemäß verwendbaren Verbindungen, etwa die 11-Oxo-11-H pyrido-[2,1-b]-chinazolin-2-carbonsäure und ihre Salze, den Vorzug besserer Verträglichkeit.

[3] = tested on: Harnsäurespiegel; experiment: Rat test: lowering of uric acid level; format: in vivo; details: 100 mg/kg pro Tag (in zwei gleichen Gaben), Ratten
Description: (§1) Im Versuch an Ratten wurde mit 100 mg/kg pro Tag (in zwei gleichen Gaben) eine deutliche Senkung des Triglyceridspiegels erreicht, z.B. 34% Senkung gegenüber der Kontrolle bei normolipämischen Ratten. Vorteilhafterweise wurde gleichzeitig der Harnsäurespiegel um 38 % gesenkt. Es läßt sich daher mit einer Substanz eine Therapie der Hyperlipidämie und der Hyperurikämie durchführen. Dadurch können unerwünschte Wechselwirkungen, wie sie bei der sonst nötigen Behandlung mit je einem Wirkstoff gegen die Hyperurikämie und gegen die Hyperlipidämie auftreten können, von vornherein vermieden werden.

[4] = tested on: Triglyceridspiegel; experiment: Rat test: lowering of triglyceride level; format: in vivo; details: 100 mg/kg pro Tag (in zwei gleichen Gaben), normolipämische Ratten
Description: as §1

[5] = tested on: Gesamtcholesterin; experiment: Study in 8 healthy volunteers on a defined purine-rich diet: total cholesterol; format: in vivo, gesunde Probanden; details: nach 8 Tagen (nach Therapieende), 600 mg/Tag from day 4, n = 8, before therapy (4 days) 196 ± 70 mg/dl, before diet 201 ± 48 mg/dl
Description: In einer anderen Studie erhielten 8 gesunde Probanden eine definierte purinreiche Diät über die Prüfdauer von 8 Tagen. Nach 4 Tagen wurde mit der Verabreichung von 11-Oxo-11-H-pyrido[2,1-b]-chinazolin-2-carbonsäure (600 mg/Tag) begonnen.
Gesamtcholesterin (x); n = 8
Das Ergebnis bedeutet eine l8prozentige Senkung des Gesamtcholesterins.

O=C(O)c1ccc2nc3ccccn3c(=O)c2c1 [11-Oxo-11-H-pyrido[2,1-b]chinazolin-2-carbonsäure]
Senkung des Gesamtcholesterinspiegels [1]: ~25% | präparatespezifische Nebenwirkungen [2]: keinerlei präparatespezifischen Nebenwirkungen | Senkung des Harnsäurespiegels [3]: 38% | Senkung des Triglyceridspiegels gegenüber der Kontrolle [4]: 34% | Gesamtcholesterin (x) [5]: 160 ± 48 mg/dL
